According to the supplement of paper PMC10627819:

What was measured:
Experiment in all cases: fitness (endpoint OD595 vs no drug) (fraction); higher = more growth
B. subtilis 168 = system: B. subtilis 168
Summary of the method: (§1)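 Growth medium was TSB, LB Lennox or CY, and plates were kept at 37 °C. Inoculation was at OD595 0.01 in 384-well plates, at 30 µl per well or 55 µl for S. pneumoniae. OD595 was monitored every 30 min for 14 h and background-subtracted using the first reading. Fitness is the optical density on entering stationary phase divided by the robust mean of no-drug controls, with values capped at 1.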

S. aureus Newman = system: S. aureus Newman
Summary of the method: as §1

S. pneumoniae D39V = system: S. pneumoniae D39V
Summary of the method: as §1
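Note: OD595 on entry to stationary phase over no-drug wells; at most 1.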

O=C(O)c1cn(C2CC2)c2cc(N3CCNCC3)c(F)cc2c1=O [Ciprofloxacin] + CO/N=C(\C(=O)N[C@@H]1C(=O)N2C(C(=O)O)=C(COC(N)=O)CS[C@H]12)c1ccco1 [Cefuroxime]
fitness, B. subtilis 168
Conditions	first compound 0.0098 µg/mL	first compound 0.0195 µg/mL	first compound 0.039 µg/mL
partner 0.04875 µg/mL	0.632	0.391	0.042
partner 0.0975 µg/mL	–	0.212	0.0421
partner 0.195 µg/mL	0.317	0.0634	0.0359

fitness, one replicate
Conditions	partner 0.04875 µg/mL	partner 0.0975 µg/mL	partner 0.195 µg/mL	partner 0.39 µg/mL	partner 0.78 µg/mL	partner 1.562 µg/mL	partner 3.125 µg/mL	partner 6.25 µg/mL
B. subtilis 168, first compound 0.0098 µg/mL	–	–	–	0.266	0.224	0.24	0.179	0.0609
B. subtilis 168, first compound 0.0195 µg/mL	–	–	–	0.0291	0.0398	0.0343	0.0254	0.0167
B. subtilis 168, first compound 0.039 µg/mL	–	–	–	0.0168	0.0177	0.0261	0.0302	0.0254
S. aureus Newman, first compound 0.078 µg/mL	0.554	0.441	0.469	–	–	–	–	–
S. aureus Newman, first compound 0.156 µg/mL	0.0634	0.0619	0.0412	–	–	–	–	–
S. aureus Newman, first compound 0.312 µg/mL	0.0573	0.0666	0.061	–	–	–	–	–

O=C(O)c1cn(C2CC2)c2cc(N3CCNCC3)c(F)cc2c1=O [Ciprofloxacin] + CO/N=C(\C(=O)N[C@@H]1C(=O)N2C(C(=O)[O-])=C(C[N+]3(C)CCCC3)CS[C@H]12)c1csc(N)n1 [Cefepime]
Conditions	fitness
S. aureus Newman, first compound 0.0375 µg/mL, partner 0.125 µg/mL	0.764
S. aureus Newman, first compound 0.0375 µg/mL, partner 0.25 µg/mL	0.684
S. aureus Newman, first compound 0.0375 µg/mL, partner 0.5 µg/mL	0.642
S. aureus Newman, first compound 0.075 µg/mL, partner 0.125 µg/mL	0.686
S. aureus Newman, first compound 0.075 µg/mL, partner 0.25 µg/mL	0.667
S. aureus Newman, first compound 0.075 µg/mL, partner 0.5 µg/mL	0.604
S. pneumoniae D39V, first compound 0.125 µg/mL, partner 0.007 µg/mL	0.991
S. pneumoniae D39V, first compound 0.125 µg/mL, partner 0.0078 µg/mL	≥ 1
S. pneumoniae D39V, first compound 0.125 µg/mL, partner 0.014 µg/mL	≥ 1
S. pneumoniae D39V, first compound 0.125 µg/mL, partner 0.0155 µg/mL	0.935
S. pneumoniae D39V, first compound 0.125 µg/mL, partner 0.028 µg/mL	0.917
S. pneumoniae D39V, first compound 0.25 µg/mL, partner 0.007 µg/mL	0.942
S. pneumoniae D39V, first compound 0.25 µg/mL, partner 0.014 µg/mL	0.972
S. pneumoniae D39V, first compound 0.25 µg/mL, partner 0.028 µg/mL	0.841
S. pneumoniae D39V, first compound 0.5 µg/mL, partner 0.007 µg/mL	0.877
S. pneumoniae D39V, first compound 0.5 µg/mL, partner 0.0078 µg/mL	0.811
S. pneumoniae D39V, first compound 0.5 µg/mL, partner 0.014 µg/mL	0.903
S. pneumoniae D39V, first compound 0.5 µg/mL, partner 0.0155 µg/mL	0.734
S. pneumoniae D39V, first compound 0.5 µg/mL, partner 0.028 µg/mL	0.779
S. pneumoniae D39V, first compound 0.5 µg/mL, partner 0.031 µg/mL	0.289

S. pneumoniae D39V, first compound 0.25 µg/mL, one replicate
Conditions	fitness
partner 0.0078 µg/mL	0.929
partner 0.0155 µg/mL	0.959
partner 0.031 µg/mL	0.741

O=C(O)c1cn(C2CC2)c2cc(N3CCNCC3)c(F)cc2c1=O [Ciprofloxacin] + CO[C@@]12[C@H](COC(N)=O)C3=C(C(=O)C(C)=C(N)C3=O)N1C[C@@H]1N[C@@H]12 [Mitomycin C]
Conditions	fitness
S. aureus Newman, first compound 0.0375 µg/mL, partner 0.0156 µg/mL	0.609
S. aureus Newman, first compound 0.0375 µg/mL, partner 0.0312 µg/mL	0.557
S. aureus Newman, first compound 0.0375 µg/mL, partner 0.0625 µg/mL	0.366
S. aureus Newman, first compound 0.075 µg/mL, partner 0.0156 µg/mL	0.573
S. aureus Newman, first compound 0.075 µg/mL, partner 0.0312 µg/mL	0.497
S. aureus Newman, first compound 0.075 µg/mL, partner 0.0625 µg/mL	0.219
S. aureus Newman, first compound 0.15 µg/mL, partner 0.0156 µg/mL	0.152
S. aureus Newman, first compound 0.15 µg/mL, partner 0.0312 µg/mL	0.0809
S. aureus Newman, first compound 0.15 µg/mL, partner 0.0625 µg/mL	0.0294
S. pneumoniae D39V, first compound 0.125 µg/mL, partner 0.001075 µg/mL	0.917
S. pneumoniae D39V, first compound 0.125 µg/mL, partner 0.002 µg/mL	0.75
S. pneumoniae D39V, first compound 0.125 µg/mL, partner 0.00215 µg/mL	0.892
S. pneumoniae D39V, first compound 0.125 µg/mL, partner 0.004 µg/mL	0.632
S. pneumoniae D39V, first compound 0.125 µg/mL, partner 0.0043 µg/mL	0.766
S. pneumoniae D39V, first compound 0.125 µg/mL, partner 0.008 µg/mL	0.322
S. pneumoniae D39V, first compound 0.25 µg/mL, partner 0.001075 µg/mL	0.861
S. pneumoniae D39V, first compound 0.25 µg/mL, partner 0.00215 µg/mL	0.822
S. pneumoniae D39V, first compound 0.25 µg/mL, partner 0.0043 µg/mL	0.736
S. pneumoniae D39V, first compound 0.5 µg/mL, partner 0.001075 µg/mL	0.658
S. pneumoniae D39V, first compound 0.5 µg/mL, partner 0.00215 µg/mL	0.643
S. pneumoniae D39V, first compound 0.5 µg/mL, partner 0.0043 µg/mL	0.523
S. pneumoniae D39V, first compound 0.5 µg/mL, partner 0.008 µg/mL	0.188

S. pneumoniae D39V, first compound 0.25 µg/mL, one replicate
Conditions	fitness
partner 0.002 µg/mL	0.541
partner 0.004 µg/mL	0.394
partner 0.008 µg/mL	0.154

O=C(O)c1cn(C2CC2)c2cc(N3CCNCC3)c(F)cc2c1=O [Ciprofloxacin] + N[C@@H]1CONC1=O [Cycloserine D]
fitness
Conditions	partner 0.125 µg/mL	partner 0.25 µg/mL	partner 0.375 µg/mL	partner 0.5 µg/mL	partner 0.75 µg/mL	partner 1.5 µg/mL
B. subtilis 168, first compound 0.0098 µg/mL	0.891	0.85	–	0.901	–	–
B. subtilis 168, first compound 0.0195 µg/mL	0.684	0.653	–	0.679	–	–
B. subtilis 168, first compound 0.039 µg/mL	0.144	0.0682	–	0.12	–	–
S. aureus Newman, first compound 0.0375 µg/mL	–	–	0.7	–	0.682	0.689
S. aureus Newman, first compound 0.15 µg/mL	–	–	0.0749	–	0.0416	0.047

O=C(O)c1cn(C2CC2)c2cc(N3CCNCC3)c(F)cc2c1=O [Ciprofloxacin] + O=C(O)[C@H]1/C(=C/CO)O[C@@H]2CC(=O)N21 [Clavulanic acid]
Conditions	fitness
B. subtilis 168, first compound 0.0098 µg/mL, partner 1.5 µg/mL	0.912
B. subtilis 168, first compound 0.0098 µg/mL, partner 3 µg/mL	0.85
B. subtilis 168, first compound 0.0098 µg/mL, partner 6 µg/mL	0.717
B. subtilis 168, first compound 0.0195 µg/mL, partner 1.5 µg/mL	0.758
B. subtilis 168, first compound 0.0195 µg/mL, partner 3 µg/mL	0.643
B. subtilis 168, first compound 0.039 µg/mL, partner 1.5 µg/mL	0.151
B. subtilis 168, first compound 0.039 µg/mL, partner 3 µg/mL	0.0402
B. subtilis 168, first compound 0.039 µg/mL, partner 6 µg/mL	0.0214
S. pneumoniae D39V, first compound 0.125 µg/mL, partner 0.5 µg/mL	0.957
S. pneumoniae D39V, first compound 0.125 µg/mL, partner 1 µg/mL	0.913
S. pneumoniae D39V, first compound 0.125 µg/mL, partner 2 µg/mL	0.796
S. pneumoniae D39V, first compound 0.25 µg/mL, partner 0.5 µg/mL	0.806
S. pneumoniae D39V, first compound 0.25 µg/mL, partner 1 µg/mL	0.788

fitness, S. aureus Newman, one replicate
Conditions	first compound 0.078 µg/mL	first compound 0.156 µg/mL	first compound 0.312 µg/mL
partner 0.03125 µg/mL	0.709	0.283	0.143
partner 0.0625 µg/mL	0.695	0.216	0.0875
partner 0.125 µg/mL	0.699	0.211	0.116

COc1cccc2c1C(=O)c1c(O)c3c(c(O)c1C2=O)C[C@@](O)(C(=O)CO)C[C@@H]3O[C@H]1C[C@H](N)[C@H](O)[C@H](C)O1 [Doxorubicin] + CC1(C)S[C@@H]2[C@H](NC(=O)Cc3ccccc3)C(=O)N2[C@H]1C(=O)O [Penicillin G]
fitness, S. aureus Newman
Conditions	first compound 0.625 µg/mL	first compound 1.25 µg/mL	first compound 2.5 µg/mL
partner 0.0195 µg/mL	0.705	0.711	0.698
partner 0.039 µg/mL	0.727	0.718	0.734
partner 0.078 µg/mL	0.752	0.72	0.692
